Columns and labels:
Plasmodium falciparum [1] = assay: Antimalarial activity against Plasmodium falciparum W2; type: functional, organism-based
Plasmodium berghei [2] = assay: Antimalarial activity against Plasmodium berghei infected in Swiss mouse at 2 mg/kg/day, po; type: functional
Plasmodium berghei [3] = assay: Antimalarial activity against Plasmodium berghei infected in mouse; type: functional
Plasmodium berghei [4] = assay: Antimalarial activity against Plasmodium berghei K173 infected in mouse; type: functional; conditions: Plasmodium berghei, K173
Plasmodium berghei [5] = assay: Potency index, ratio of artesunic acid ED50 to test compound ED50 for Plasmodium berghei; type: functional
Plasmodium falciparum [6] = assay: Antimalarial activity against Plasmodium falciparum 3D7; type: functional, organism-based
CCRF-CEM = assay: Cytotoxicity against human CCRF-CEM cells; type: functional, cell-based
ADR5000 cell line = assay: Cytotoxicity against human CEM/ADR5000 cells; type: functional, cell-based
Plasmodium berghei [7] = assay: Antimalarial activity against Plasmodium berghei ANKA infected in mouse at 30 mg/kg; type: functional
Plasmodium yoelii [8] = assay: Antimalarial activity against multidrug resistant Plasmodium yoelii infected in swiss mouse assessed as reduction in parasitaemia at 96 mg/kg, po measured on day 4; type: functional; set-up: scale not given: the % may be the effect or the level left; conditions: time 4 day
Plasmodium yoelii [9] = assay: Antimalarial activity against multidrug resistant Plasmodium yoelii infected in swiss mouse assessed as increase in survival at 96 mg/kg, po after 28 days; type: functional; conditions: time 28 day
Plasmodium falciparum [10] = assay: Potency index, ratio of artemisinin IC50 to test compound IC50 for Plasmodium falciparum K1; type: functional
Plasmodium falciparum [11] = assay: Potency index, ratio of artemisinin IC50 to test compound IC50 for Plasmodium falciparum HB3; type: functional
Plasmodium falciparum [12] = assay: Antimalarial activity against ART-resistant Plasmodium falciparum harboring R539T mutant assessed as increase in survival at 700 nM; type: functional
Plasmodium berghei [13] = assay: Antimalarial activity against Plasmodium berghei infected in mouse assessed cured animal rate measured after 25 days; type: functional; conditions: time 25 day
Plasmodium berghei [14] = assay: Antimalarial activity against Plasmodium berghei infected in mouse assessed reduction in parasitemia measured after 4 days; type: functional; set-up: scale not given: the % may be the effect or the level left; conditions: time 4 day
Plasmodium berghei [15] = assay: Antimalarial activity against Plasmodium berghei infected in mouse assessed increase in survival time; type: functional
Plasmodium falciparum [16] = assay: Antimalarial activity against chloroquine-sensitive Plasmodium falciparum NF54; type: functional, organism-based
Plasmodium falciparum [17] = assay: Potency index, ratio of artesunate IC50 to test compound IC50 for Plasmodium falciparum NF54; type: functional
Plasmodium falciparum [18] = assay: Antimalarial activity against Plasmodium falciparum D6; type: functional, organism-based
Plasmodium falciparum [19] = assay: Antimalarial activity against chloroquine-sensitive Plasmodium falciparum HB3; type: functional, organism-based
Plasmodium falciparum [20] = assay: Antimalarial activity against Plasmodium falciparum K1; type: functional, organism-based; conditions: read-out: EC50
Plasmodium berghei [21] = assay: Antimalarial activity against Plasmodium berghei infected in sc dosed mouse; type: functional; conditions: Plasmodium berghei
Plasmodium falciparum [22] = assay: Antimalarial activity against Plasmodium falciparum Dd2; type: functional, organism-based
Plasmodium falciparum [23] = assay: Antimalarial activity against chloroquine sensitive Plasmodium falciparum FCR-3; type: functional, organism-based
Plasmodium berghei [24] = assay: Antimalarial activity against Plasmodium berghei N strain infected in mouse at 30 mg/kg, ip administered once daily for 4 days; type: functional; conditions: time 4 day
Plasmodium falciparum [25] = assay: Antimalarial activity against Plasmodium falciparum HB3; type: functional, organism-based
Plasmodium falciparum [26] = assay: Antimalarial activity against Plasmodium falciparum SGE2; type: functional, organism-based
Plasmodium falciparum [27] = assay: Antimalarial activity against chloroquine resistant Plasmodium falciparum; type: functional, organism-based
[28] = Half life in human; type: ADME
Plasmodium berghei [29] = assay: Antimalarial activity against Plasmodium berghei ANKA infected in mouse at 30 mg/kg, po; type: functional
Plasmodium berghei [30] = assay: Antimalarial activity against Plasmodium berghei ANKA infected in po dosed mouse; type: functional; conditions: Plasmodium berghei, ANKA
Plasmodium yoelii [31] = assay: Antimalarial activity against Plasmodium yoelii infected in sc dosed mouse; type: functional
Plasmodium berghei [32] = assay: Potency index, ratio of artesunate ED90 to test compound ED90 for Plasmodium berghei; type: functional
Plasmodium yoelii [33] = assay: Potency index, ratio of artesunate ED90 to test compound ED90 for Plasmodium yoelii; type: functional

## CC(C)(N)CNC(=O)O[C@@H]1CCC[C@]2(C1)OOC1(O2)C2CC3CC(C2)CC1C3 (some centres not stated)
Plasmodium falciparum [1]
  IC50: 1.8 nM
Plasmodium berghei [2]
  Activity: 100%

## CC(O[C@H]1O[C@@H]2O[C@@]3(C)CC[C@H]4[C@H](C)CC[C@@H]([C@H]1C)[C@@]24OO3)c1ccc(CN2CCOCC2)c(O)c1 (some centres not stated)
Plasmodium berghei [3]; Plasmodium berghei
  ED50: 0.64 mg/kg/day
Plasmodium berghei [4]
  ED50: 0.64 mg/kg/day
Plasmodium berghei [5]
  Ratio ED50: 10

## C[C@H]1[C@H](OC(=O)CCC(=O)Nc2ccc3ncnc(Cc4ccc(Cl)c(Cl)c4)c3c2)O[C@@H]2O[C@]3(C)CC[C@H]4[C@H](C)CC[C@@H]1[C@@]24OO3
Plasmodium falciparum [6]; read-out: EC50
  EC50: 1.4 nM
CCRF-CEM
  EC50: 2800 nM
ADR5000 cell line
  EC50: 500 nM

## FC1CCN(CCOc2ccc(C3CCC4(CC3)OOC3(OO4)C4CC5CC(C4)CC3C5)cc2)CC1 (configuration not stated)
Plasmodium falciparum [6]
  IC50: 5.1 nM
Plasmodium berghei [7]
  Activity: 99.65%

## C=C(c1ccccc1)C1COC2(OO1)C1CC3CC(C1)CC2C3 (configuration not stated)
Plasmodium yoelii [8]
  Activity: 96%
Plasmodium yoelii [9]
  Activity: 80%

## COP(=O)(OCC[C@H]1O[C@@H]2O[C@]3(C)CC[C@H]4[C@H](C)CC[C@@H]([C@H]1C)[C@@]24OO3)OCC[C@H]1O[C@@H]2O[C@]3(C)CC[C@H]4[C@H](C)CC[C@@H]([C@H]1C)[C@@]24OO3
Plasmodium falciparum [10]
  Ratio IC50: >50
Plasmodium falciparum [11]
  Ratio IC50: >50

## CC(C)(N)CNC(=O)C[C@H]1CC[C@]2(CC1)OO[C@]1(O2)C2CC3CC(C2)CC1C3 [OZ277]
Plasmodium berghei [3]
  Activity: 67%
Plasmodium falciparum [12]
  Activity: 0.01%
Plasmodium berghei [13]
  Activity: 60%

## CCN(CC)Cc1cc(C2CCC3(CC2)OOC2(OO3)C3CC4CC(C3)CC2C4)ccc1O (configuration not stated)
Plasmodium berghei [14]
  Activity: >99.7%
Plasmodium berghei [15]
  Time: 27 days
Plasmodium berghei [13]
  Activity: 66%

## C[C@H]1[C@H](OC(=O)c2cccc3c2OCO3)O[C@@H]2O[C@]3(C)CC[C@H]4[C@H](C)CC[C@@H]1[C@@]24OO3
Plasmodium falciparum [16]
  IC50: 8.08 nM
Plasmodium falciparum [17]
  Ratio IC50: 2.3

## C[C@@H]1CC[C@H]2[C@@H](C)C(=O)O[C@@H]3O[C@@]4(C)CC[C@@H]1[C@]32OO4 [ARTEMISININ]
Plasmodium falciparum [18]
  IC50: 55 nM
Plasmodium falciparum [19]
  IC50: 3.04 nM
Plasmodium falciparum [20]
  EC50: 3.6 nM
Plasmodium falciparum [16]
  IC50: 18.4 nM
Plasmodium berghei [21]
  ED50: 3 mg/kg
Plasmodium falciparum [22]
  IC50: 13 nM
Plasmodium falciparum [23]
  IC50: 1.4 nM
Plasmodium berghei [24]
  Activity: 74.5%
Plasmodium falciparum [25]
  IC50: 7 nM
Plasmodium falciparum [26]
  IC50: 9 nM
Plasmodium falciparum [27]
  IC50: 0.001 mg/cm3
[28]
  half-life: 2 h

## O=C(CC1CCC2(CC1)OOC1(OO2)C2CC3CC(C2)CC1C3)N1CCOCC1 (configuration not stated)
Plasmodium berghei [29]
  Activity: 100%
Plasmodium berghei [30]
  ED90: 3.88 mg/kg

## C[C@H]1[C@H](Nc2ccc(F)cc2)O[C@@H]2O[C@]3(C)CC[C@H]4[C@H](C)CC[C@@H]1[C@@]24OO3
Plasmodium yoelii [31]
  ED90: 0.6 mg/kg
Plasmodium falciparum [18]
  IC50: 0.64 ng/mL
Plasmodium falciparum [1]
  IC50: 0.64 ng/mL
Plasmodium berghei [21]
  ED90: 0.35 mg/kg
Plasmodium berghei [32]
  Ratio: 13
Plasmodium yoelii [33]
  Ratio: 13

— ChEMBL document CHEMBL5244272 (Eur J Med Chem, 2021)
